Assay results reported in ChEMBL document CHEMBL3044934, “Design, synthesis, and antiviral evaluation of phenanthrene-based tylophorine derivatives as potential antiviral agents” (2010).

What was measured:
Format in all cases: functional
[1] = system: Tobacco mosaic virus; assay: Antiviral activity against Tobacco mosaic virus (TMV) pre-treated with 500 ug/mL compound for 30 min followed by inoculation on left side of Nicotiana tabacum leaves assessed as virus inactivation effect measured 3 to 4 days post viral infection
[2] = system: Tobacco mosaic virus; assay: Antiviral activity against Tobacco mosaic virus (TMV) inoculated on 100 ug/mL compound smeared Nicotiana tabacum leaves assessed as protective effect against viral infection measured 3 to 4 days post viral infection
[3] = system: Tobacco mosaic virus; assay: Antiviral activity against Tobacco mosaic virus (TMV) pre-treated with 100 ug/mL compound for 30 min followed by inoculation on left side of Nicotiana tabacum leaves assessed as virus inactivation effect measured 3 to 4 days post viral infection
[4] = system: Tobacco mosaic virus; assay: Antiviral activity against Tobacco mosaic virus (TMV) inoculated on whole Nicotiana tabacum leaves followed by smearing with 500 ug/mL compound solution on left side of leaves assessed as viral infection curative effect measured 3 to 4 days post viral infection
[5] = system: Tobacco mosaic virus; assay: Antiviral activity against Tobacco mosaic virus (TMV) inoculated on whole Nicotiana tabacum leaves followed by smearing with 100 ug/mL compound solution on left side of leaves assessed as viral infection curative effect measured 3 to 4 days post viral infection
[6] = system: Tobacco mosaic virus; assay: Antiviral activity against Tobacco mosaic virus (TMV) inoculated on 500 ug/mL compound smeared Nicotiana tabacum leaves assessed as protective effect against viral infection measured 3 to 4 days post viral infection

Structure (SMILES): COc1cc2cc(CN3CCC[C@H]3CO)c3cc(OC)c(OC)cc3c2cc1OC
- Activity [1]: 74.2%
- Activity [2]: 10.4%
- Activity [3]: 36.9%
- Activity [4]: 34.6%
- Activity [5]: 13.4%
- Activity [6]: 19.2%

Structure (SMILES): COC(=O)[C@@H]1CCCN1C(=O)c1cc2cc(OC)c(OC)cc2c2cc(OC)c(OC)cc12
- Activity [1]: 8.4%
- Activity [2]: 19.2%
- Activity [3]: 8%
- Activity [4]: 64.6%
- Activity [5]: 10.6%
- Activity [6]: 56.7%

Structure (SMILES): COc1cc2cc(CN3CCCCC3C(=O)O)c3cc(OC)c(OC)cc3c2cc1OC (stereo not drawn)
- Activity [1]: 68.9%
- Activity [2]: 10%
- Activity [3]: 38.7%
- Activity [4]: 45.1%
- Activity [5]: 28.9%
- Activity [6]: 12.9%

Structure (SMILES): COC(=O)C1CCCCN1Cc1cc2cc(OC)c(OC)cc2c2cc(OC)c(OC)cc12 (stereo not drawn)
- Activity [1]: 59.1%
- Activity [2]: 27.1%
- Activity [3]: 50.2%
- Activity [4]: 11.8%
- Activity [5]: 1.2%
- Activity [6]: 64.6%

Structure (SMILES): COC(=O)C1CCCCN1C(=O)c1cc2cc(OC)c(OC)cc2c2cc(OC)c(OC)cc12 (stereo not drawn)
- Activity [1]: 17.3%
- Activity [2]: 12.5%
- Activity [3]: 4.4%
- Activity [4]: 17.9%
- Activity [5]: 4.9%
- Activity [6]: 56.3%

Structure (SMILES): COc1cc2cc(CN3CCC[C@H]3C(=O)O)c3cc(OC)c(OC)cc3c2cc1OC
- Activity [1]: 39.6%
- Activity [2]: 23.3%
- Activity [3]: 21.3%
- Activity [4]: 54.1%
- Activity [5]: 14.2%
- Activity [6]: 35.4%

Structure (SMILES): COC(=O)[C@@H]1CCCN1Cc1cc2cc(OC)c(OC)cc2c2cc(OC)c(OC)cc12
- Activity [1]: 80%
- Activity [2]: 38.3%
- Activity [3]: 54.7%
- Activity [4]: 33.7%
- Activity [5]: 2.9%
- Activity [6]: 47.1%

Structure (SMILES): COc1cc2cc(CN3CCCCC3CO)c3cc(OC)c(OC)cc3c2cc1OC (stereo not drawn)
- Activity [1]: 8.4%
- Activity [2]: 4.6%
- Activity [3]: 5.2%
- Activity [4]: 46.8%
- Activity [5]: 36.2%
- Activity [6]: 21.3%

Structure (SMILES): COc1cc2cc(CN3CCC(O)CC3)c3cc(OC)c(OC)cc3c2cc1OC
- Activity [1]: 71.1%
- Activity [2]: 11.3%
- Activity [3]: 9.3%
- Activity [4]: 37.4%
- Activity [5]: 33.7%
- Activity [6]: 70.8%

Structure (SMILES): COC(=O)CCCCCNC(=O)c1cc2cc(OC)c(OC)cc2c2cc(OC)c(OC)cc12
- Activity [1]: 6.7%
- Activity [2]: 14.2%
- Activity [3]: 5.8%
- Activity [4]: 65.9%
- Activity [5]: 48%
- Activity [6]: 54.6%

Structure (SMILES): COc1cc2cc(C(=O)NCCCCCCO)c3cc(OC)c(OC)cc3c2cc1OC
- Activity [1]: 60.9%
- Activity [2]: 22.5%
- Activity [3]: 57.8%
- Activity [4]: 65%
- Activity [5]: 49.6%
- Activity [6]: 41.7%

Structure (SMILES): CNCC(=O)N[C@@H](CO)C(=O)N[C@H]1[C@H](O)[C@@H](O)[C@H](n2ccc(N)nc2=O)O[C@@H]1C(N)=O [NINGNANMYCIN]
- Activity [1]: 68.4%
- Activity [2]: 47.5%
- Activity [3]: 48%
- Activity [4]: 47.9%
- Activity [5]: 39%
- Activity [6]: 48.7%

Structure (SMILES): COc1cc2c3c(c4cc(OC)c(OC)cc4c2cc1OC)CN1CCC[C@@H]1C3 [TYLOPHORINE]
- Activity [1]: 62.6%
- Activity [2]: 37.9%
- Activity [3]: 56.4%
- Activity [4]: 65.9%
- Activity [5]: 57.7%
- Activity [6]: 53.3%
